Target: T1, CuCDH (Cerrena unicolor, UniProt S5R9V1)
T1 construct: native secreted intact flavocytochrome (heme b plus FAD domains) purified from culture supernatant; signal peptide (18 aa) removed; precursor 771 aa
Assay: UV-visible spectrum of purified enzyme
Format: binding
Conditions: 100 mM sodium acetate, pH 4.5; oxidized and lactose-reduced

T1 sequence (S5R9V1 19-771): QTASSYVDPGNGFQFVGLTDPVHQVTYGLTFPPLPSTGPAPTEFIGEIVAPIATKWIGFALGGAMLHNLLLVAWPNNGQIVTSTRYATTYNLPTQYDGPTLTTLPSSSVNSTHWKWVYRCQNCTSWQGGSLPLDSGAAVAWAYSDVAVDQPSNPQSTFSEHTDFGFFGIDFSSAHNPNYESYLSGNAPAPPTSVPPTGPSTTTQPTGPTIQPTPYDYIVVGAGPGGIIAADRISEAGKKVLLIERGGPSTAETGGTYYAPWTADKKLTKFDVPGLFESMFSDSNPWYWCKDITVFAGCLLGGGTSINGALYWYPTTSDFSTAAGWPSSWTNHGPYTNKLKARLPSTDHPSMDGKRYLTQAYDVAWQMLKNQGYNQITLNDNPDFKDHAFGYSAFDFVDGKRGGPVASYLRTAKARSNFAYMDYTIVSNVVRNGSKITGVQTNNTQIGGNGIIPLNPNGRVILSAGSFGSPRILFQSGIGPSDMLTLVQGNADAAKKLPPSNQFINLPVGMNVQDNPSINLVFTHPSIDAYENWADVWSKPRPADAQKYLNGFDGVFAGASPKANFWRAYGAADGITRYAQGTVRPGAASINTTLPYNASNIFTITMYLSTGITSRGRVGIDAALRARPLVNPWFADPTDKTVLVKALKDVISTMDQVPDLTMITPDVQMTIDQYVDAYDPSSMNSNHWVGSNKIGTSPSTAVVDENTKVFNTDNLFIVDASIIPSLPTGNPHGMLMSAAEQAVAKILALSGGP

Cc1cc2nc3c(=O)[nH]c(=O)nc-3n(C[C@H](O)[C@H](O)[C@H](O)COP(=O)(O)OP(=O)(O)OC[C@H]3O[C@@H](n4cnc5c(N)ncnc54)[C@H](O)[C@@H]3O)c2cc1C [FAD]
UV-visible spectrum of purified enzyme: indicated the presence of heme and flavin cofactors in the protein
